For one experiment, the target named is T1, human GLP-1 receptor (Homo sapiens, UniProt P43220).
T1 construct: expressed in transfected cells; host or cells: COS7 cells (COShGLPr, clone #16)
Nature of the experiment: Inhibition of 125I-GLP-1 binding to human recombinant GLP-1 receptors (SPA). To be noted: 125I-GLP-1, membranes of COS7 cells transfected with human GLP-1 receptor, Cheng-Prushoff equation; read-out: K1 value, inhibition of the binding of GLP-1 to its receptor. On the procedure:
Wheatgerm agglutinin scintillation proximity assay (SPA) beads (500 mg) from Amersham (RPNQ 0001) were diluted into 50 ml of assay buffer (Assay buffer consisted of 150 mM NaCl, 10 mM MgCl2, 1 mM EDTA, and 20 mM HEPES, pH 7.4). The SPA beads were combined (1:1 v/v) with a crude membrane preparation from COS7 cells transfected with the human GLP-1 receptor at a concentration of 30 μg/ml/well. These cells (COShGLPr, clone #16) were grown in Dulbecco's Modified Eagle Medium with high glucose (DMEM Gibco, #11965-092) supplemented with 10% heat-inactivated fetal bovine serum (Gibco, #1600-044), 2 mM L-Glutamine (Gibco #25030-081), and 10 μg/ml Gentamicin (Gibco #15710-064) with 705 μg/ml Geneticin (G418 sulfate, Gibco) (DMEM complete). The mixture was incubated for two hours at room temperature with constant rotation. The free membranes were washed away by centrifuging the mixture for 5 minutes at 800 rpm in a table-top GLCl (Sorvall) centrifuge. The supernatant was discarded and the pellet was resuspended in 50 ml assay buffer+0.1% bovine serum albumin. […] The plates were counted approximately 10 h later in a Microbeta Trilux liquid scintillation counter (WALLAC). […] Binding constants (Ki) were calculated with the Cheng-Prushoff equation (Cheng Y C and Prushoff W H, Biochem Pharmacol 22:3099, 1973). […]

In experiment [1] the target is T2, endogenous GLP-1 receptor coupled to adenylate cyclase (Rattus norvegicus, UniProt P32301).
T2 construct: host or cells: RIN-m5F insulinoma cells
T2 sequence (P32301 22-463): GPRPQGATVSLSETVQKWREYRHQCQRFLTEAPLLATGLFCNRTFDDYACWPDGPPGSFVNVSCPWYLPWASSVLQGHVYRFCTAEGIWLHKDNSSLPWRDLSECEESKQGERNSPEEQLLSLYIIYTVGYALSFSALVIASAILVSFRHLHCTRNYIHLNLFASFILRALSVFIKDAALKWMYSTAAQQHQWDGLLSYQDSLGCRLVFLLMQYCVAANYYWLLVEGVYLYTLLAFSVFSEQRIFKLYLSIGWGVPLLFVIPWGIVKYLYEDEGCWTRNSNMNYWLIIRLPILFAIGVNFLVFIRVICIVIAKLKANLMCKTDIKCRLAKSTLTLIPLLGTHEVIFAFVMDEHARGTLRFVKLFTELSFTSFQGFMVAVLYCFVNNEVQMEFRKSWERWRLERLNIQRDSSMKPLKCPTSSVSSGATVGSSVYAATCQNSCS
Nature of the experiment: Inhibition of GLP-1 induced cAMP signaling in RIN-m5F insulinoma cells. Format: cell-based. To be noted: 3 nM GLP-1, 15 minutes, FIG. 2. On the procedure: The cells were obtained from the American Type Culture Collection (ATCC, #203641 F13132) and grown in RPMI 1640 (GIBCO, #21870-076) supplemented with 2 mM L-glutamine, 10% heat inactivated fetal bovine serum, and 10 μg/ml Gentamicin.
RIN-m5F cells were plated in 12 well plates at a density of 2.0×10^5 cells per ml and grown for 4 days in complete RPMI 1640 with 10% fetal bovine serum; the medium was changed the day before experiment. The cells were from 70-90% confluent at the time of the experiment. On the day of the experiment, the incubation medium was removed and the cells were washed with fresh serum-free RPMI 1640 containing 0.1% bovine serum albumin (serum-free medium). One ml DMEM complete with 1 mM 3-isobutyl-1-methylxanthine (Sigma) was added and the plates were placed at 37° C. and 5.0% CO2 for 15 minutes before initiation of the experiment. Fresh compounds were acquired and dissolved as 10 mM solutions in DMSO. A further 1:10 dilution was prepared in DMEM and after the incubation period, the compounds were added to the wells at 30 μM final concentration. The final concentration of DMSO was always 0.3%. The wells were treated with or without GLP-1 (3 nM). The plates were then incubated at 37° C. and 5.0% CO2 for 15 minutes. […] The solution was mixed well and quantitatively transferred to microcentrifuge tubes with 1 wash of 0.5 ml of the 50 mM NaOH solution. […]

In a further experiment the test system is RIN-m5F cells. Nature of the experiment: Inhibition of GLP-1 stimulated insulin release in RIN-m5F cells. The experiment is classed as cell-based. To be noted: for GLP-1 induced insulin release: 3 nM GLP-1, 1 h, compounds 0.1 μM to 30 μM, FIG. 3. On the procedure: The RIN-m5F cells were grown as in Example 2. The cells were plated in 96-well plates (10,000 per well) at a density of 2×10^5 cells per ml and grown for 3 days. The culture medium was changed the day before the experiment. On the day of the experiment, the medium was removed and replaced with serum-free RPMI 1640 containing 0.1% bovine serum albumin (serum-free medium). Dilutions of compounds prepared in serum-free medium from 10 mM DMSO stock solutions to give final concentrations from 0.1 μM to 30 μM were added. The cells were stimulated with 3 nM GLP-1 in a total volume of 200 μl for 1 h and the concentration of insulin in the medium was measured in an ELISA (Mercodia AB). The insulin release in the presence of medium was 6.3±1.4 ng/ml and 10.5±1.4 ng/ml in the presence of 3 nM GLP-1.

These results are taken from US6573291B2, “Method and use” (Biovitrum AB, priority 2000, dated 2003).

T1 sequence (P43220 24-463): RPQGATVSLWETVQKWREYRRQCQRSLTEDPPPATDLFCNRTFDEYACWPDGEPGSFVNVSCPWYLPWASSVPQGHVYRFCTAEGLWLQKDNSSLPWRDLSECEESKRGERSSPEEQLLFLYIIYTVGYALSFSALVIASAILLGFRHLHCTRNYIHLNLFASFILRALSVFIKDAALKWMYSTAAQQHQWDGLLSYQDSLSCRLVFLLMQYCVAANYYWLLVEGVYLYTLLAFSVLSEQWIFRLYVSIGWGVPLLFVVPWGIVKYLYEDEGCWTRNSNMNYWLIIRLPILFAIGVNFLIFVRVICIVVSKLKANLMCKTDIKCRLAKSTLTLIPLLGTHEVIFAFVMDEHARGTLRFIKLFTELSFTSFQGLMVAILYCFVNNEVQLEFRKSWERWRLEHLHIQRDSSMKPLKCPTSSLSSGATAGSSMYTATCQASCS

Consider `Cc1nn(C)c(/C=C/Nc2cc(Cl)ccc2O)c1[N+](=O)[O-]` [Compound A, 4-chloro-2-{[(E)-2-(1,3-dimethyl-4-nitro-1H-pyrazol-5-yl)ethenyl]amino}phenol], for which, at human GLP-1 receptor, the Ki is roughly 1000 nM. Further, the “GLP-1 stimulated cAMP production” value in experiment [1] is “concentration dependently decreased GLP-1 stimulated cAMP production to a level close to that obtained in the absence of GLP-1”. Further, the “GLP-1 induced insulin release” value in the experiment with RIN-m5F cells is given as “substantial reduction of the GLP-1 induced insulin release”.

Consider `Cc1nn(C)c(/C=C/Nc2ccc(F)cc2)c1[N+](=O)[O-]` [Compound B, 4-fluoro-1-{[(E)-2-(1,3-dimethyl-4-nitro-1H-pyrazol-5-yl)ethenyl]amino}benzene], for which the “GLP-1 induced insulin release” value in the experiment with RIN-m5F cells is listed as “substantial reduction of the GLP-1 induced insulin release”.

With `Cc1nn(C)c(/C=C/Nc2ccc(OC(F)(F)F)cc2)c1[N+](=O)[O-]` [Compound C, 4-trifluoromethoxy-1-{[(E)-2-(1,3-dimethyl-4-nitro-1H-pyrazol-5-yl)ethenyl]amino}benzene], in the experiment on RIN-m5F cells, the “GLP-1 induced insulin release” value is “substantial reduction of the GLP-1 induced insulin release”.

With `COc1ccc(N/C=C/c2c([N+](=O)[O-])c(C)nn2C)c(OC)c1` [Compound D, 2,4-dimethoxy-1-{[(E)-2-(1,3-dimethyl-4-nitro-1H-pyrazol-5-yl)ethenyl]amino}benzene], the “GLP-1 induced insulin release” value in the experiment with RIN-m5F cells is listed as “substantial reduction of the GLP-1 induced insulin release”. In the case of “Glucagon-like peptide 1(7-36)amide [GLP-1, reference compound]”, the insulin release with RIN-m5F cells (in the presence of 3 nM GLP-1 alone, 1 h (medium 6.3±1.4 ng/ml)) was 10.5 ± 1.4 ng/mL.
